From patent US20250312352A1, “GLP-1R MODULATING COMPOUNDS” (Gilead Sciences, Inc., priority 2021, published 2025)

target: T1, GLP-1R (Homo sapiens, UniProt P43220); assay: GLP-1R activation cAMP assay (Assay 1 or Assay 2); format: cell-based; conditions: cAMP increase in CHO cells stably expressing GLP-1R; compounds run on one of the two cAMP assays
T1 construct: host or cells: CHO cells
Procedure, shortened: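 CHO cells stably expressing human GLP-1R were incubated 1 h in HBSS/20 mM HEPES/0.1% BSA, then exposed to 10-point agonist dilutions for 30 min at 37 °C. cAMP increase was measured with an HTRF Gs dynamic kit; EC50 from sigmoidal fit of response versus log concentration.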

T1 sequence (P43220 24-463): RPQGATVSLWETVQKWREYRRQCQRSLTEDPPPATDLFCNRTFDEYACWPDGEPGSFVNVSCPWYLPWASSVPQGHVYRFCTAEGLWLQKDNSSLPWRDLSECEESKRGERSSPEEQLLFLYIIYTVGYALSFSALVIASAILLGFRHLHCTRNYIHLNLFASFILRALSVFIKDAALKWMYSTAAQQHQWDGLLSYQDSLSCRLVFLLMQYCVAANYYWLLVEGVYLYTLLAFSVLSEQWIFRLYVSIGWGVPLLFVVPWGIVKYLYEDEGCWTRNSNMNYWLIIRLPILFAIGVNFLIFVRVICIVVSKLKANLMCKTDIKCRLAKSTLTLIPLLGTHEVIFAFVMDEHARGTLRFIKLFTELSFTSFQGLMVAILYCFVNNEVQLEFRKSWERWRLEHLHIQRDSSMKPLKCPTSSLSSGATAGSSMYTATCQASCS

Row | EC50 [pM] | Compound
1 | 190 | CC1(C)COC[C@@H]1n1c(Cc2cc(F)c(-c3cccc(OCc4ncc(C#N)s4)n3)cc2F)nc2ccc(C(=O)O)cc21 [Example 182, (R)-2-(4-(6-((5-cyanothiazol-2-yl)methoxy)pyridin-2-yl)-2,5-difluorobenzyl)-1-(4,4-dimethyltetrahydrofuran-3-yl)-1H-benzo[d]imidazole-6-carboxylic acid]
2 | 50 | O=C(O)c1cc(F)c2nc(Cc3cc(F)c(-c4cccc(OCc5ncc(-c6cnn(C(F)F)c6)s5)n4)cc3F)n(C[C@@H]3CCO3)c2c1 [Example 85, (S)-2-(4-(6-((5-(1-(difluoromethyl)-1H-pyrazol-4-yl)thiazol-2-yl)methoxy)pyridin-2-yl)-2,5-difluorobenzyl)-4-fluoro-1-(oxetan-2-ylmethyl)-1H-benzo[d]imidazole-6-carboxylic acid]
3 | 466 | COCc1nnc(COc2cccc(-c3cc(F)c(Cc4nc5ccc(C(=O)O)cc5n4C[C@@H]4CCO4)cc3F)n2)s1 [Example 298, (S)-2-(2,5-difluoro-4-(6-((5-(methoxymethyl)-1,3,4-thiadiazol-2-yl)methoxy)pyridin-2-yl)benzyl)-1-(oxetan-2-ylmethyl)-1H-benzo[d]imidazole-6-carboxylic acid]
4 | 235 | O=C(O)c1cc(F)c2nc(Cc3cc(F)c(-c4cccc(OCc5ncc(C#Cc6cncs6)cc5F)n4)cc3F)n(C[C@@H]3CCO3)c2c1 [Example 390, (S)-2-(2,5-difluoro-4-(6-((3-fluoro-5-(thiazol-5-ylethynyl)pyridin-2-yl)methoxy)pyridin-2-yl)benzyl)-4-fluoro-1-(oxetan-2-ylmethyl)-1H-benzo[d]imidazole-6-carboxylic acid]
5 | 200 | O=C(O)c1ccc2nc(Cc3cc(F)c(-c4cccc(OCc5nc6ccccc6s5)n4)cc3F)n(C[C@@H]3CCO3)c2c1 [Example 34, (S)-2-(4-(6-(benzo[d]thiazol-2-ylmethoxy)pyridin-2-yl)-2,5-difluorobenzyl)-1-(oxetan-2-ylmethyl)-1H-benzo[d]imidazole-6-carboxylic acid]
6 | 67 | COc1nnc(COc2cccc(-c3cc(F)c(Cc4nc5c(F)cc(C(=O)O)cc5n4CC4(CF)CC4)c(F)c3F)n2)s1 [Example 280, 4-fluoro-1-((1-(fluoromethyl)cyclopropyl)methyl)-2-(2,3,6-trifluoro-4-(6-((5-methoxy-1,3,4-thiadiazol-2-yl)methoxy)pyridin-2-yl)benzyl)-1H-benzo[d]imidazole-6-carboxylic acid]
7 | 305 | Cc1ncc(C#Cc2ccc(COc3cccc(-c4cc(F)c(Cc5nc6ccc(C(=O)O)cc6n5C[C@@H]5CCO5)cc4F)n3)cc2)cn1 [Example 305, (S)-2-(2,5-difluoro-4-(6-((4-((2-methylpyrimidin-5-yl)ethynyl)benzyl)oxy)pyridin-2-yl)benzyl)-1-(oxetan-2-ylmethyl)-1H-benzo[d]imidazole-6-carboxylic acid]
8 | 1200 | Cc1cc(Cc2nc3ccc(C(=O)O)cc3n2[C@@H]2COCC2(C)C)c(F)cc1-c1ccc(F)c(OCc2ncc(C(C)(F)F)s2)n1 [Example 337, (S)-2-(4-(6-((5-(1,1-difluoroethyl)thiazol-2-yl)methoxy)-5-fluoropyridin-2-yl)-2-fluoro-5-methylbenzyl)-1-(4,4-dimethyltetrahydrofuran-3-yl)-1H-benzo[d]imidazole-6-carboxylic acid]
9 | 670 | O=C(O)c1ccc2nc(Cc3cc(F)c(-c4cccc(OCc5csc(Cl)n5)n4)cc3F)n(C[C@@H]3CCO3)c2c1 [Example 50, (S)-2-(4-(6-((2-chlorothiazol-4-yl)methoxy)pyridin-2-yl)-2,5-difluorobenzyl)-1-(oxetan-2-ylmethyl)-1H-benzo[d]imidazole-6-carboxylic acid]
10 | 144 | COc1nnc(COc2cccc(-c3cc(F)c(Cc4nc5ccc(C(=O)O)cc5n4[C@@H]4COCC4(C)C)c(F)c3F)n2)s1 [Example 273, (S)-1-(4,4-dimethyltetrahydrofuran-3-yl)-2-(2,3,6-trifluoro-4-(6-((5-methoxy-1,3,4-thiadiazol-2-yl)methoxy)pyridin-2-yl)benzyl)-1H-benzo[d]imidazole-6-carboxylic acid]
11 | 250 | Cn1cncc1C#Cc1ccc(COc2cccc(-c3cc(F)c(Cc4nc5ccc(C(=O)O)cc5n4C[C@@H]4CCO4)cc3F)n2)c(F)c1 [Example 142, (S)-2-(2,5-difluoro-4-(6-((2-fluoro-4-((1-methyl-1H-imidazol-5-yl)ethynyl)benzyl)oxy)pyridin-2-yl)benzyl)-1-(oxetan-2-ylmethyl)-1H-benzo[d]imidazole-6-carboxylic acid]
12 | 43300 | Cn1nc(COc2cccc(-c3cc(F)c(Cc4nc5ccc(C(=O)O)cc5n4C[C@@H]4CCO4)cc3F)n2)cc1C(N)=O [Example 206, (S)-2-(4-(6-((5-carbamoyl-1-methyl-1H-pyrazol-3-yl)methoxy)pyridin-2-yl)-2,5-difluorobenzyl)-1-(oxetan-2-ylmethyl)-1H-benzo[d]imidazole-6-carboxylic acid]
13 | 220 | Cn1cc(CNC(=O)c2cc(Cl)c(COc3cccc(-c4cc(F)c(Cc5nc6ccc(C(=O)O)cc6n5C[C@@H]5CCO5)cc4F)n3)cn2)cn1 [Example 193, (S)-2-(4-(6-((4-chloro-6-(((1-methyl-1H-pyrazol-4-yl)methyl)carbamoyl)pyridin-3-yl)methoxy)pyridin-2-yl)-2,5-difluorobenzyl)-1-(oxetan-2-ylmethyl)-1H-benzo[d]imidazole-6-carboxylic acid]
14 | 80 | N#CC1(NC(=O)c2ccc(COc3cccc(-c4cc(F)c(Cc5nc6c(F)cc(C(=O)O)cc6n5C[C@@H]5CCO5)cc4F)n3)cn2)CC1 [Example 197, (S)-2-(4-(6-((6-((1-cyanocyclopropyl)carbamoyl)pyridin-3-yl)methoxy)pyridin-2-yl)-2,5-difluorobenzyl)-4-fluoro-1-(oxetan-2-ylmethyl)-1H-benzo[d]imidazole-6-carboxylic acid]
15 | 330 | O=C(O)c1ccc2nc(Cc3cc(F)c(-c4cccc(OCc5cnc(Cl)s5)n4)cc3F)n(C[C@@H]3CCO3)c2c1 [Example 20, (S)-2-(4-(6-((2-chlorothiazol-5-yl)methoxy)pyridin-2-yl)-2,5-difluorobenzyl)-1-(oxetan-2-ylmethyl)-1H-benzo[d]imidazole-6-carboxylic acid]
16 | 1110 | CO[C@H](C)Cn1c(Cc2cc(F)c(-c3cccc(OCc4ncc(-c5cnn(C)c5)s4)n3)cc2F)nc2ccc(C(=O)O)cc21 [Example 224, 2-[[2,5-difluoro-4-[6-[[5-(1-methylpyrazol-4-yl)thiazol-2-yl]methoxy]-2-pyridyl]phenyl]methyl]-3-[(2R)-2-methoxypropyl]benzimidazole-5-carboxylic acid]
17 | 427 | CCOC(=O)N1Cc2ccc(COc3cccc(-c4cc(F)c(Cc5nc6ccc(C(=O)O)cc6n5C[C@@H]5CCO5)cc4F)n3)cc2C1 [Example 435, (S)-2-(4-(6-((2-(ethoxycarbonyl)isoindolin-5-yl)methoxy)pyridin-2-yl)-2,5-difluorobenzyl)-1-(oxetan-2-ylmethyl)-1H-benzo[d]imidazole-6-carboxylic acid]
18 | 577 | CCOc1nnc(COc2cccc(-c3cc(F)c(Cc4nc5ccc(C(=O)O)cc5n4[C@@H]4COCC4(C)C)cc3C)c2)s1 [Example 259, (S)-1-(4,4-dimethyltetrahydrofuran-3-yl)-2-((3′-((5-ethoxy-1,3,4-thiadiazol-2-yl)methoxy)-5-fluoro-2-methyl-[1,1′-biphenyl]-4-yl)methyl)-1H-benzo[d]imidazole-6-carboxylic acid]
19 | 372 | N#CCCNC(=O)c1ccc(COc2cccc(-c3cc(F)c(Cc4nc5ccc(C(=O)O)cc5n4C[C@@H]4CCO4)cc3F)n2)cn1 [Example 375, (S)-2-(4-(6-((6-((2-cyanoethyl)carbamoyl)pyridin-3-yl)methoxy)pyridin-2-yl)-2,5-difluorobenzyl)-1-(oxetan-2-ylmethyl)-1H-benzo[d]imidazole-6-carboxylic acid]
20 | 890 | COCCn1c(Cc2cc(F)c(-c3cccc(OCc4ccc(C#CC5CN(C(C)=O)C5)cc4F)n3)cc2F)nc2ccc(C(=O)O)cc21 [Example 251, 2-[[4-[6-[[4-[2-(1-acetylazetidin-3-yl)ethynyl]-2-fluoro-phenyl]methoxy]-2-pyridyl]-2,5-difluoro-phenyl]methyl]-3-(2-methoxyethyl)benzimidazole-5-carboxylic acid]
21 | 499 | O=C(O)c1ccc2nc(Cc3cc(F)c(-c4cccc(OCc5ncc(C#Cc6cscn6)cc5F)n4)cc3F)n(C[C@@H]3CCO3)c2c1 [Example 292, (S)-2-(2,5-difluoro-4-(6-((3-fluoro-5-(thiazol-4-ylethynyl)pyridin-2-yl)methoxy)pyridin-2-yl)benzyl)-1-(oxetan-2-ylmethyl)-1H-benzo[d]imidazole-6-carboxylic acid]
22 | 126 | O=C(O)c1ccc2nc(Cc3cc(F)c(-c4cccc(OCc5ncc(C#Cc6cnsc6)cc5F)n4)cc3F)n(C[C@@H]3CCO3)c2c1 [Example 285, (S)-2-(2,5-difluoro-4-(6-((3-fluoro-5-(isothiazol-4-ylethynyl)pyridin-2-yl)methoxy)pyridin-2-yl)benzyl)-1-(oxetan-2-ylmethyl)-1H-benzo[d]imidazole-6-carboxylic acid]
23 | 3680 | COCCn1c(Cc2cc(F)c(-c3cccc(OCc4ccc(-c5cnn(Cc6cccnc6)c5)cc4F)n3)cc2F)nc2ccc(C(=O)O)cc21 [Example 237, 2-[[2,5-difluoro-4-[6-[[2-fluoro-4-[1-(3-pyridylmethyl)pyrazol-4-yl]phenyl]methoxy]-2-pyridyl]phenyl]methyl]-3-(2-methoxyethyl)benzimidazole-5-carboxylic acid]
24 | 1870 | CC(=O)N1CC(Oc2nnc(COc3cccc(-c4cc(F)c(Cc5nc6ccc(C(=O)O)cc6n5C[C@@H]5CCO5)cc4F)n3)s2)C1 [Example 348, (S)-2-(4-(6-((5-((1-acetylazetidin-3-yl)oxy)-1,3,4-thiadiazol-2-yl)methoxy)pyridin-2-yl)-2,5-difluorobenzyl)-1-(oxetan-2-ylmethyl)-1H-benzo[d]imidazole-6-carboxylic acid]
